Experimental data taken from paper PMC7402526, “An in vitro quantitative systems pharmacology approach for deconvolving mechanisms of drug-induced, multilineage cytopenias” (PLoS Computational Biology, 2020).

What was measured:
[1] = tested on: granulocyte progenitor (Gran-lin prog); test: MLTA, GranP: concentration-response and QSP model fit; format: cell-based, human; details: Homo sapiens, 144 h
Outline: (§1)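 Drug was added at time 0 to thawed human bone marrow CD34+ cells in SFEM II plus a cytokine cocktail. After 6 days at 37°C, subsets were counted by surface-marker flow with TruCount beads. Vehicle-normalized, donor-pooled data then fed an Emax model separating anti-proliferative from cell-killing effects.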

[2] = tested on: total viable cells (totalViableCells); test: MLTA, total live cells concentration-response; format: cell-based; details: Homo sapiens, 144 h, 6 days, normalized to vehicle control, read-out: total_live normalized cell count
Outline: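 Freeze-thawed primary human bone marrow CD34+ cells in SFEM II with cytokine cocktail, drug added day 0, 6 days at 37°C, 5% CO2. Live/dead counts by 17-parameter flow cytometry with DAPI exclusion, bead-normalized, volume-corrected to cells/mL. Normalized per donor to mean of six vehicle wells; 2–7 donors pooled.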

MK cells (MK-lin) = test: MLTA, MK: concentration-response and QSP model fit; format: cell-based, human; details: Homo sapiens, 144 h
Outline: (§2)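 Six-day flow cytometry counts, bead-normalized and expressed relative to the mean of six vehicle wells, underlie each value. Cells were primary human bone marrow CD34+ cells cultured in SFEM II with cytokines promoting multi-lineage differentiation and self-renewal.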

granulocytes (Gran-lin) = test: MLTA, Gran: concentration-response and QSP model fit; format: cell-based, human; details: Homo sapiens, 144 h
Outline: as §1

[3] = tested on: lymphocyte progenitors (LymP); test: MLTA, LymP: concentration-response and QSP model fit; format: cell-based, human; details: Homo sapiens, Lymphocyte, 144 h
Outline: as §2

[4] = tested on: multi-potent progenitors (MPPs); test: MLTA, MPPs: concentration-response and QSP model fit; format: cell-based, human; details: Homo sapiens, 144 h
Outline: as §2

B cells (B-lin) = test: MLTA, B-lin: concentration-response and QSP model fit; format: cell-based, human; details: Homo sapiens, B-cell, 144 h
Outline: as §2

[5] = tested on: granulocyte-macrophage progenitor (GMPs); test: MLTA, GMPs: concentration-response and QSP model fit; format: cell-based, human; details: Homo sapiens, 144 h
Outline: as §2

[6] = QSP model fit of 6-day MLTA data

## CCN1CCN(Cc2ccc(Nc3ncc(F)c(-c4cc(F)c5nc(C)n(C(C)C)c5c4)n3)nc2)CC1 [abemaciclib]
[1]; dose 0.2 nM, 6 days, normalized to vehicle control, read-out: GranPs normalized cell count
  activity at 0.0002 µM: 95.1%
[1]; dose 1 nM, 6 days, normalized to vehicle control, read-out: GranPs normalized cell count
  activity at 0.001 µM: 100%
[1]; dose 5 nM, 6 days, normalized to vehicle control, read-out: GranPs normalized cell count
  activity at 0.005 µM: 86.6%
[1]; dose 25 nM, 6 days, normalized to vehicle control, read-out: GranPs normalized cell count
  activity at 0.025 µM: 52%
[1]; dose 100 nM, 6 days, normalized to vehicle control, read-out: GranPs normalized cell count
  activity at 0.1 µM: 24.8%
[1]; dose 500 nM, 6 days, normalized to vehicle control, read-out: GranPs normalized cell count
  activity at 0.5 µM: 2.43%
[1]; dose 2500 nM, 6 days, normalized to vehicle control, read-out: GranPs normalized cell count
  activity at 2.5 µM: 0.0287%
[1]; parameter from QSP model fitting, read-out: Emax_drug_GranP
  Emax: 0.23%
[2]; dose 0.2 nM
  viability at 0.0002 µM: 99.1%
[2]; dose 1 nM
  viability at 0.001 µM: 108%
[2]; dose 5 nM
  viability at 0.005 µM: 96%
[2]; dose 25 nM
  viability at 0.025 µM: 47.7%
[2]; dose 100 nM
  viability at 0.1 µM: 17.4%
[2]; dose 500 nM
  viability at 0.5 µM: 3.05%
[2]; dose 2500 nM
  viability at 2.5 µM: 0.301%
MK cells (MK-lin); [6]
  EC50: 0.486 µM
MK cells (MK-lin); dose 0.2 nM, 6 days, normalized to vehicle control, read-out: MK normalized cell count
  activity at 0.0002 µM: 108%
MK cells (MK-lin); dose 1 nM, 6 days, normalized to vehicle control, read-out: MK normalized cell count
  activity at 0.001 µM: 99.5%
MK cells (MK-lin); dose 5 nM, 6 days, normalized to vehicle control, read-out: MK normalized cell count
  activity at 0.005 µM: 101%
MK cells (MK-lin); dose 25 nM, 6 days, normalized to vehicle control, read-out: MK normalized cell count
  activity at 0.025 µM: 84.2%
MK cells (MK-lin); dose 100 nM, 6 days, normalized to vehicle control, read-out: MK normalized cell count
  activity at 0.1 µM: 44.1%
MK cells (MK-lin); dose 500 nM, 6 days, normalized to vehicle control, read-out: MK normalized cell count
  activity at 0.5 µM: 8.35%
MK cells (MK-lin); dose 2500 nM, 6 days, normalized to vehicle control, read-out: MK normalized cell count
  activity at 2.5 µM: 0.557%
MK cells (MK-lin); parameter from QSP model fitting, read-out: Emax_drug_MK
  Emax: 6.8%
Granulocytes (Gran-lin); dose 0.2 nM, 6 days, normalized to vehicle control, read-out: Gran normalized cell count
  activity at 0.0002 µM: 101%
Granulocytes (Gran-lin); dose 1 nM, 6 days, normalized to vehicle control, read-out: Gran normalized cell count
  activity at 0.001 µM: 107%
Granulocytes (Gran-lin); dose 5 nM, 6 days, normalized to vehicle control, read-out: Gran normalized cell count
  activity at 0.005 µM: 91.3%
Granulocytes (Gran-lin); dose 25 nM, 6 days, normalized to vehicle control, read-out: Gran normalized cell count
  activity at 0.025 µM: 34.6%
Granulocytes (Gran-lin); dose 100 nM, 6 days, normalized to vehicle control, read-out: Gran normalized cell count
  activity at 0.1 µM: 9.12%
Granulocytes (Gran-lin); dose 500 nM, 6 days, normalized to vehicle control, read-out: Gran normalized cell count
  activity at 0.5 µM: 1.99%
Granulocytes (Gran-lin); dose 2500 nM, 6 days, normalized to vehicle control, read-out: Gran normalized cell count
  activity at 2.5 µM: 0.0882%
Granulocytes (Gran-lin); parameter from QSP model fitting, read-out: Emax_drug_Gran
  Emax: 0.16%
[3]; dose 0.2 nM, 6 days, normalized to vehicle control, read-out: LymP normalized cell count
  activity at 0.0002 µM: 93.5%
[3]; dose 1 nM, 6 days, normalized to vehicle control, read-out: LymP normalized cell count
  activity at 0.001 µM: 99.4%
[3]; dose 5 nM, 6 days, normalized to vehicle control, read-out: LymP normalized cell count
  activity at 0.005 µM: 92.9%
[3]; dose 25 nM, 6 days, normalized to vehicle control, read-out: LymP normalized cell count
  activity at 0.025 µM: 38.9%
[3]; dose 100 nM, 6 days, normalized to vehicle control, read-out: LymP normalized cell count
  activity at 0.1 µM: 22.1%
[3]; dose 500 nM, 6 days, normalized to vehicle control, read-out: LymP normalized cell count
  activity at 0.5 µM: 22.3%
[3]; dose 2500 nM, 6 days, normalized to vehicle control, read-out: LymP normalized cell count
  activity at 2.5 µM: 7.46%
[3]; parameter from QSP model fitting, read-out: Emax_drug_LymP
  Emax: 0.16%
[4]; dose 0.2 nM, 6 days, normalized to vehicle control, read-out: MPPs normalized cell count
  activity at 0.0002 µM: 102%
[4]; dose 1 nM, 6 days, normalized to vehicle control, read-out: MPPs normalized cell count
  activity at 0.001 µM: 98.3%
[4]; dose 5 nM, 6 days, normalized to vehicle control, read-out: MPPs normalized cell count
  activity at 0.005 µM: 80.3%
[4]; dose 25 nM, 6 days, normalized to vehicle control, read-out: MPPs normalized cell count
  activity at 0.025 µM: 44.3%
[4]; dose 100 nM, 6 days, normalized to vehicle control, read-out: MPPs normalized cell count
  activity at 0.1 µM: 24.8%
[4]; dose 500 nM, 6 days, normalized to vehicle control, read-out: MPPs normalized cell count
  activity at 0.5 µM: 27.6%
[4]; dose 2500 nM, 6 days, normalized to vehicle control, read-out: MPPs normalized cell count
  activity at 2.5 µM: 3.6%
[4]; parameter from QSP model fitting, read-out: Emax_drug_MPP
  Emax: 0.16%
B cells (B-lin); [6]
  EC50: 0.0692 µM
B cells (B-lin); dose 0.2 nM, 6 days, normalized to vehicle control, read-out: B-lin normalized cell count
  activity at 0.0002 µM: 83.9%
B cells (B-lin); dose 1 nM, 6 days, normalized to vehicle control, read-out: B-lin normalized cell count
  activity at 0.001 µM: 104%
B cells (B-lin); dose 5 nM, 6 days, normalized to vehicle control, read-out: B-lin normalized cell count
  activity at 0.005 µM: 83.9%
B cells (B-lin); dose 25 nM, 6 days, normalized to vehicle control, read-out: B-lin normalized cell count
  activity at 0.025 µM: 50.8%
B cells (B-lin); dose 100 nM, 6 days, normalized to vehicle control, read-out: B-lin normalized cell count
  activity at 0.1 µM: 23.5%
B cells (B-lin); dose 500 nM, 6 days, normalized to vehicle control, read-out: B-lin normalized cell count
  activity at 0.5 µM: 4.07%
B cells (B-lin); dose 2500 nM, 6 days, normalized to vehicle control, read-out: B-lin normalized cell count
  activity at 2.5 µM: 0.0736%
B cells (B-lin); parameter from QSP model fitting, read-out: Emax_drug_B
  Emax: 64.9%
[5]; [6]
  EC50: 0.0373 µM
[5]; dose 0.2 nM, 6 days, normalized to vehicle control, read-out: GMPs normalized cell count
  activity at 0.0002 µM: 89.7%
[5]; dose 1 nM, 6 days, normalized to vehicle control, read-out: GMPs normalized cell count
  activity at 0.001 µM: 108%
[5]; dose 5 nM, 6 days, normalized to vehicle control, read-out: GMPs normalized cell count
  activity at 0.005 µM: 93.6%
[5]; dose 25 nM, 6 days, normalized to vehicle control, read-out: GMPs normalized cell count
  activity at 0.025 µM: 50.4%
[5]; dose 100 nM, 6 days, normalized to vehicle control, read-out: GMPs normalized cell count
  activity at 0.1 µM: 29.2%
[5]; dose 500 nM, 6 days, normalized to vehicle control, read-out: GMPs normalized cell count
  activity at 0.5 µM: 5.84%
[5]; dose 2500 nM, 6 days, normalized to vehicle control, read-out: GMPs normalized cell count
  activity at 2.5 µM: 0.643%
